Read-outs that look alike come from different tables or passages of the source.
Experiments:
[1] = tested on: MCF-7; experiment: MTT cytotoxicity assay on MCF-7; type: cell-based; details: MCF-7 human cancer cell line, at 200 μM
[2] = target: α-glucosidase from Saccharomyces cerevisiae (Saccharomyces cerevisiae, UniProt P53341); experiment: biochemical; type: biochemical; details: for IC50: substrate p-nitrophenyl glucopyranoside, 37 °C
Experimental: Next, absorbance was measured at 405 nm by spectrophotometer (Gen5, Power wave xs2, BioTek, USA), and IC50 value for each tested compound was calculated by taking advantage of the nonlinear regression curve (logit method).

[3] = tested on: HDF; experiment: MTT cytotoxicity assay on HDF; type: cell-based; details: HDF human normal cell line, at 200 μM
[4] = target: α-glucosidase (Saccharomyces cerevisiae, UniProt P53341); experiment: Enzyme kinetic study (Lineweaver–Burk and secondary plot); type: biochemical
Sequence of α-glucosidase (P53341 whole entry): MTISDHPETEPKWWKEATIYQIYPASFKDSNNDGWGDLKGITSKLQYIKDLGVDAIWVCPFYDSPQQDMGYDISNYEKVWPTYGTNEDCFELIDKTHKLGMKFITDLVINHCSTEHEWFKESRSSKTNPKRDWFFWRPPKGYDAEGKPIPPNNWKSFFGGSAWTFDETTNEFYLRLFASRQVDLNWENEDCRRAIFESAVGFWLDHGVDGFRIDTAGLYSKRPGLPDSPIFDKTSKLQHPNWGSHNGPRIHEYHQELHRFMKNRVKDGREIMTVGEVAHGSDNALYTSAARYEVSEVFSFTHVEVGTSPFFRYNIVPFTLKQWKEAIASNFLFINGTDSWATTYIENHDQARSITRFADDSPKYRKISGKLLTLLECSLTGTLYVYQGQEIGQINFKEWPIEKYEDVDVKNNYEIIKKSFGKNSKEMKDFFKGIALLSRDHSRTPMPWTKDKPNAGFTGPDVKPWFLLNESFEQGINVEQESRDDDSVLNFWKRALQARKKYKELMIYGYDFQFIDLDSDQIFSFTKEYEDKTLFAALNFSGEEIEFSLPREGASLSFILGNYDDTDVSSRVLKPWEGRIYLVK
Experimental: Furthermore, the plot of the Km versus different concentrations of compound 8p gave an estimate of Ki as the inhibition constant (Fig. 2b). Ki value for the latter compound was 60 µM.
A Lineweaver–Burk plot was generated to identify the type of inhibition and the Michaelis–Menten constant (Km) value was determined from plot between reciprocal of the substrate concentration (1/[S]) and reciprocal of enzyme rate (1/V) over various inhibitor concentrations. Experimental inhibitor constant (Ki) value was constructed by secondary plots of the inhibitor concentration [I] versus Km.

Sequence of α-glucosidase from Saccharomyces cerevisiae (P53341 whole entry): as above

Q: With `COc1ccc(-c2nc3cc(C(=O)N/N=C/c4ccccc4)ccc3[nH]2)cc1` [Compound 8a, (E)-N'-benzylidene-2-(4-methoxyphenyl)-1H-benzo[d]imidazole-5-carbohydrazide] as the compound, how does the “cytotoxicity (MTT)” value [1] read?
A: non-cytotoxic

Q: What about the IC50 ([2]; IC50, yeast α-glucosidase) of the same compound?
A: 70.6 ± 6.8 µM

Q: What about the melting point of the same compound?
A: > 250 °C

Q: What about the “cytotoxicity (MTT)” value [3] of the same compound?
A: non-cytotoxic

Q: With `COc1ccc(-c2nc3cc(C(=O)N/N=C/c4ccc(C)cc4)ccc3[nH]2)cc1` [Compound 8b, (E)-2-(4-methoxyphenyl)-N'-(4-methylbenzylidene)-1H-benzo[d]imidazole-5-carbohydrazide] as the compound, how does the IC50 ([2]; IC50, yeast α-glucosidase) read?
A: 102 ± 5.6 µM

Q: What about the melting point of the same compound?
A: > 250 °C

Q: Which IC50 ([2]; IC50, yeast α-glucosidase) does the source give for `COc1ccc(/C=N/NC(=O)c2ccc3[nH]c(-c4ccc(OC)cc4)nc3c2)cc1` [Compound 8c, (E)-N'-(4-methoxybenzylidene)-2-(4-methoxyphenyl)-1H-benzo[d]imidazole-5-carbohydrazide] here?
A: 110 ± 5.5 µM

Q: And the melting point?
A: > 250 °C

Q: With `COc1ccc(-c2nc3cc(C(=O)N/N=C/c4cc(OC)c(OC)c(OC)c4)ccc3[nH]2)cc1` [Compound 8d, (E)-2-(4-methoxyphenyl)-N'-(3,4,5-trimethoxybenzylidene)-1H-benzo[d]imidazole-5-carbohydrazide] as the compound, how does the “inhibitory activity against α-glucosidase (in words)” value ([2]; yeast α-glucosidase) read?
A: inactive

Q: For `COc1ccc(-c2nc3cc(C(=O)N/N=C/c4cccc(Oc5ccccc5)c4)ccc3[nH]2)cc1` [Compound 8e, (E)-2-(4-methoxyphenyl)-N'-(3-phenoxybenzylidene)-1H-benzo[d]imidazole-5-carbohydrazide], which IC50 ([2]; IC50, yeast α-glucosidase) is on record?
A: 127 ± 6.5 µM

Q: What about the melting point of the same compound?
A: > 250 °C

Q: Which IC50 ([2]; IC50, yeast α-glucosidase) does the source give for `COc1ccc(-c2nc3cc(C(=O)N/N=C/c4cccc(O)c4)ccc3[nH]2)cc1` [Compound 8f, (E)-N'-(3-hydroxybenzylidene)-2-(4-methoxyphenyl)-1H-benzo[d]imidazole-5-carbohydrazide] here?
A: 181 ± 8.5 µM

Q: For `COc1ccc(-c2nc3cc(C(=O)N/N=C/c4ccc(O)c(OC)c4)ccc3[nH]2)cc1` [Compound 8g, (E)-N'-(4-hydroxy-3-methoxybenzylidene)-2-(4-methoxyphenyl)-1H-benzo[d]imidazole-5-carbohydrazide], which IC50 ([2]; yeast α-glucosidase, read-out: IC50) is on record?
A: 287 ± 7.4 µM

Q: And the melting point?
A: > 250 °C

Q: Which “cytotoxicity (MTT)” value [1] does the source give for `COc1ccc(-c2nc3cc(C(=O)N/N=C/c4ccccc4F)ccc3[nH]2)cc1` [Compound 8h, (E)-N'-(2-fluorobenzylidene)-2-(4-methoxyphenyl)-1H-benzo[d]imidazole-5-carbohydrazide] here?
A: non-cytotoxic

Q: What about the IC50 ([2]; IC50, yeast α-glucosidase) of the same compound?
A: 69 ± 4 µM

Q: What about the “cytotoxicity (MTT)” value [3] of the same compound?
A: non-cytotoxic

Q: Which results are given for `COc1ccc(-c2nc3cc(C(=O)N/N=C/c4cccc(F)c4)ccc3[nH]2)cc1` [Compound 8i, (E)-N'-(3-fluorobenzylidene)-2-(4-methoxyphenyl)-1H-benzo[d]imidazole-5-carbohydrazide]?
A: IC50 ([2]; IC50, yeast α-glucosidase): 88.1 ± 6 µM; melting point: > 250 °C

Q: Which results are given for `COc1ccc(-c2nc3cc(C(=O)N/N=C/c4ccc(F)cc4)ccc3[nH]2)cc1` [Compound 8j, (E)-N'-(4-fluorobenzylidene)-2-(4-methoxyphenyl)-1H-benzo[d]imidazole-5-carbohydrazide]?
A: IC50 ([2]; IC50, yeast α-glucosidase): 84.1 ± 4.5 µM; melting point: > 250 °C

Q: Which IC50 ([2]; IC50, yeast α-glucosidase) does the source give for `COc1ccc(-c2nc3cc(C(=O)N/N=C/c4ccccc4Cl)ccc3[nH]2)cc1` [Compound 8k, (E)-N'-(2-chlorobenzylidene)-2-(4-methoxyphenyl)-1H-benzo[d]imidazole-5-carbohydrazide] here?
A: 90 ± 7.5 µM

Q: And the melting point?
A: > 250 °C

Q: With `COc1ccc(-c2nc3cc(C(=O)N/N=C/c4ccc(Cl)cc4)ccc3[nH]2)cc1` [Compound 8l, (E)-N'-(4-chlorobenzylidene)-2-(4-methoxyphenyl)-1H-benzo[d]imidazole-5-carbohydrazide] as the compound, how does the IC50 ([2]; IC50, yeast α-glucosidase) read?
A: 103 ± 5.5 µM

Q: And the melting point?
A: > 250 °C

Q: With `COc1ccc(-c2nc3cc(C(=O)N/N=C/c4cccc(Br)c4)ccc3[nH]2)cc1` [Compound 8m, (E)-N'-(3-bromobenzylidene)-2-(4-methoxyphenyl)-1H-benzo[d]imidazole-5-carbohydrazide] as the compound, how does the IC50 ([2]; IC50, yeast α-glucosidase) read?
A: 97 ± 4.4 µM

Q: And the melting point?
A: > 250 °C

Q: For `COc1ccc(-c2nc3cc(C(=O)N/N=C/c4ccc([N+](=O)[O-])cc4)ccc3[nH]2)cc1` [Compound 8n, (E)-2-(4-methoxyphenyl)-N'-(4-nitrobenzylidene)-1H-benzo[d]imidazole-5-carbohydrazide], which IC50 ([2]; IC50, yeast α-glucosidase) is on record?
A: 112 ± 5.7 µM

Q: What about the melting point of the same compound?
A: > 250 °C

Q: Which IC50 ([2]; IC50, yeast α-glucosidase) does the source give for `COc1ccc(-c2nc3cc(C(=O)N/N=C/c4cc5c(cc4[N+](=O)[O-])OCO5)ccc3[nH]2)cc1` [Compound 8o, (E)-2-(4-methoxyphenyl)-N'-((6-nitrobenzo[d][1,3]dioxol-5-yl)methylene)-1H-benzo[d]imidazole-5-carbohydrazide] here?
A: 123 ± 6.1 µM

Q: And the melting point?
A: > 250 °C

Q: What does the source list for `COc1ccc(-c2nc3cc(C(=O)N/N=C/c4cccs4)ccc3[nH]2)cc1` [Compound 8p, (E)-2-(4-methoxyphenyl)-N'-(thiophen-2-ylmethylene)-1H-benzo[d]imidazole-5-carbohydrazide]?
A: type of inhibition ([4]; Lineweaver–Burk plot): competitive inhibitor; Ki ([4]; secondary plot of Km versus inhibitor concentration): 60 µM; cytotoxicity (MTT) [1]: non-cytotoxic; IC50 ([2]; IC50, yeast α-glucosidase): 60.1 ± 3.6 µM; melting point: > 250 °C; cytotoxicity (MTT) [3]: non-cytotoxic

Reference: paper PMC9437094, “Docking study, molecular dynamic, synthesis, anti-α-glucosidase assessment, and ADMET prediction of new benzimidazole-Schiff base derivatives” (Scientific Reports, 2022)
